Measured values as given in patent publication US20060058320A1, “[1,2,4] Triazolo[1,5-c]pyrimidine derivatives” (KYOWA HAKKO KOGYO CO., LTD., priority 2002, published 2006).
Where a name gives a salt, the structure may show the parent alone. Read-outs that look alike come from different tables or passages of the source.

Experiments:
[1] = tested on: CGS 21680-induced catalepsy; experiment: Activity on CGS 21680-induced catalepsy; format: in vivo, mice; conditions: for Total score: total catalepsy score of 10 mice (maximum 50 points; 40 points or less = positive), one hour after administration; for inhibition in vivo at 10 mg/kg: Mus musculus, po, read-out: Remission ratio (%)
Protocol: Parkinson's disease is a motor disorder based on degeneration and cell death of the nigrostriatal dopaminergic neurons. When CGS 21680 (adenosine A2A receptor agonist) is administered into the intracerebral ventricle, the inhibitory synaptic transmission of GABA in the medium sized spiny neurons in the corpus striatum is inhibited directly via the adenosine A2A receptor [Journal of Neuroscience, vol. 16, p. 605 (1996)]. Accordingly, it is concidered that the adenosine A2A receptor agonists positively regulate the output of the GABAergic neurons from the corpus striatum to the globus pallidus lateralis, and, as a result, catalepsy is induced by the administration of CGS 21680.
The test was carried out using ten 5-week age male ddY mice (22-25 g in body weight, Japan SLC) per group. CGS 21680 (produced by RBI Co) was dissolved in physiological saline (produced by Otsuka Pharmaceutical Co., Ltd.), and 10 μg/20 μL of the solution was injected into mouse intracerebral ventricle. Each test compound was used by suspending it in distilled water containing 0.3% of polyoxylene (20) sorbitan monooleate (referred to as “Tween 80” hereinafter) (produced by Otsuka Pharmaceutical Co., Ltd.). The suspension containing each test compound or a solution containing no test Compound (distilled water containing 0.3% of Tween 80; used as a control) was orally administered (0.1 mL per 10 g of mouse body weight) 30 minutes before the injection of CGS 21680 into the intracerebral ventricle. One hour after the administration of the each test compound, only forelimbs or only hindlimbs of each mouse were laid on a vertically arranged stand made of acryl and having a size of 4.5 cm in height and 1.0 cm in width to measure catalepsy symptoms. All of the test compounds were administered orally in a dose of 10 mg/kg.
The criteria of the catalepsy score are shown below.
The effect was decided by a total catalepsy score of 10 mice in one group (the maximum score: 50 points). When the total score was 40 points or less, the activity of the compounds was decided positive. The number of the animals showing remission of catalepsy was expressed by the number of cases showing a catalepsy score of 4 points or less in 10 cases. The catalepsy remission ratio was expressed as the percentage of the total score in the test compound-administered group to the total score in the control group.

[2] = from total score of test group and control group, 10 mg/kg orally

| Compound | melting point | further results |
| --- | --- | --- |
| Nc1nc(-c2ccco2)cc2nc(-c3ccco3)nn12 | 250.2 to 250.4 °C | – |
| Nc1nc(C2=CCN(CC3CC3)CC2)cc2nc(-c3ccco3)nn12 | 196.9 to 197.4 °C | – |
| CC(C)(O)CN1CC=C(c2cc3nc(-c4ccco4)nn3c(N)n2)CC1 | 197.8 to 198.1 °C | – |
| CN(C)CCN(Cc1ccccc1)C(=O)c1cc2nc(-c3ccco3)nn2c(N)n1 | 215.2 to 215.4 °C | – |
| Nc1nc(C(=O)NCC2CCCCC2)cc2nc(-c3ccco3)nn12 | 273.5 to 274 °C | – |
| Nc1nc(C2=CCN(CC(F)(F)F)CC2)cc2nc(-c3ccco3)nn12 | 247.5 to 248.2 °C (dec.) | – |
| CN(Cc1ccccc1)C(=O)c1cc2nc(-c3ccco3)nn2c(N)n1 (as salt: HCl) [Compound 78, 5-Amino-2-(2-furyl)[1,2,4]triazolo[1,5-c]pyrimidine-7-carboxylic acid (N-benzyl-N-methyl)amide] | 188.5 to 189.1 °C | – |
| CCN1CCN(Cc2ccc(-c3cc4nc(-c5ccco5)nn4c(N)n3)cc2)CC1 (as salt: hydrochloride) | 265 °C (dec.) | – |
| CCN1CCN(Cc2ccccc2-c2cc3nc(-c4ccco4)nn3c(N)n2)CC1 (as salt: hydrochloride) | 253 to 253.4 °C | – |
| COc1cc(CNCc2ccccc2-c2cc3nc(-c4ccco4)nn3c(N)n2)cc(OC)c1 (as salt: hydrochloride) | 213.5 to 214.3 °C | – |
| CC(=O)NCCNCc1ccccc1-c1cc2nc(-c3ccco3)nn2c(N)n1 (as salt: hydrochloride) [Compound 7, 5-Amino-7-{2-[2-(N-acetylamino)ethylaminomethyl]phenyl}-2-(2-furyl)[1,2,4]triazolo[1,5-c]pyrimidine monohydrochloride] | 230.8 to 231.3 °C | – |
| Nc1nc(-c2ccc(CNCCCN3CCCC3=O)cc2)cc2nc(-c3ccco3)nn12 (as salt: hydrochloride) [Compound 14, 5-Amino-2-(2-furyl)-7-{4-[3-(2-oxopyrrolidin-1-yl)propylaminomethyl]phenyl}[1,2,4]triazolo[1,5-c]pyrimidine monohydrochloride] | 269.2 to 269.8 °C | – |
| CC(=O)NCCNCc1ccc(-c2cc3nc(-c4ccco4)nn3c(N)n2)cc1 (as salt: hydrochloride) [Compound 16, 7-{4-[2-(N-acetylamino)ethylaminomethyl]phenyl}-5-amino-2-(2-furyl)[1,2,4]triazolo[1,5-c]pyrimidine monohydrochloride] | 238.5 to 240 °C | – |
| COc1ccc(CNCc2cc3nc(-c4ccco4)nn3c(N)n2)cc1OC (as salt: hydrochloride) [Compound 42, 5-Amino-7-(3,4-dimethoxybenzylaminomethyl)-2-(2-furyl)-[1,2,4]triazolo[1,5-c]pyrimidine dihydrochloride] | 241.2 to 241.5 °C | – |
| Nc1nc(CNCCc2ccccn2)cc2nc(-c3ccco3)nn12 (as salt: hydrochloride) [Compound 44, 5-Amino-7-[2-(2-pyridyl)ethylaminomethyl]-2-(2-furyl)-[1,2,4]triazolo[1,5-c]pyrimidine dihydrochloride] | 249.5 to 249.7 °C | – |
| COCC(C)NCc1ccccc1-c1cc2nc(-c3ccco3)nn2c(N)n1 (racemic) (as salt: hydrochloride) [Compound 9, (±)-5-Amino-2-(2-furyl)-7-[{2-[(2-methoxy-1-methylethyl)aminomethyl]phenyl}(1,2,4]triazolo[1,5-c]pyrimidinemonohydrochloride] | 178.9 to 179.7 °C | – |
| Nc1nc(-c2ccccc2C=O)cc2nc(-c3ccco3)nn12 [Compound 2, 5-Amino-7-(2-formylphenyl)-2-(2-furyl)[1,2,4]triazolo[1,5-c]pyrimidine] | 224 to 224.5 °C | – |
| COc1ccc(CNCc2ccccc2-c2cc3nc(-c4ccco4)nn3c(N)n2)cc1OC [Compound 3, 5-Amino-7-[2-(3,4-dimethoxybenzylaminomethyl)phenyl]-2-(2-furyl) [1,2,4]triazolo[1,5-c]pyrimidine] | 168 to 168.7 °C | – |
| Nc1nc(-c2cccc(C=O)c2)cc2nc(-c3ccco3)nn12 [Compound 18, 5-Amino-7-(3-formylphenyl)-2-(2-furyl)[1,2,4]triazolo[1,5-c]pyrimidine] | 212.8 to 213.2 °C | – |
| Nc1nc(-c2cccc(CNCCc3ccccn3)c2)cc2nc(-c3ccco3)nn12 [Compound 19, 5-Amino-2-(2-furyl)-7-{3-[2-(2-pyridyl)ethylaminomethyl]-phenyl}[1,2,4]triazolo[1,5-c]pyrimidine] | 159.2 to 159.4 °C | – |
| Nc1nc(C(=O)N2CCC(O)(c3ccccc3)CC2)cc2nc(-c3ccco3)nn12 [Compound 150, 5-Amino-2-(2-furyl)[1,2,4]triazolo[1,5-c]pyrimidin-7-yl (4-hydroxy-4-phenyl)piperidino ketone] | – | Number of animals showing remission ([1]; cases with catalepsy score of 4 points or less in 10 cases, 10 mg/kg orally): 8; Remission ratio (%) [1, 2]: 76%; Total score ([1]; 10 mg/kg orally): 11 |
| Nc1nc(C(=O)N2CCC(Cc3ccccc3)CC2)cc2nc(-c3ccco3)nn12 [Compound 158, 5-Amino-2-(2-furyl)[1,2,4]triazolo[1,5-c]pyrimidin-7-yl 4-benzylpiperidino ketone] | – | inhibition in vivo at 10 mg/kg [1]: 86%; Total score ([1]; 10 mg/kg orally): 7 |
| Nc1nc(C(=O)N2CCC(O)(Cc3ccccc3)CC2)cc2nc(-c3ccco3)nn12 [Compound 162, 5-Amino-2-(2-furyl)[1,2,4]triazolo[1,5-c]pyrimidin-7-yl 4-benzyl-4-hydroxypiperidino ketone] | – | inhibition in vivo at 10 mg/kg [1, 2]: 72%; Total score ([1]; 10 mg/kg orally): 13 |

Now from value to molecule, other results behind:

| melting point | Compound | further results |
| --- | --- | --- |
| 247.2 to 247.4 °C | Nc1nc(COc2ccccc2)cc2nc(-c3ccco3)nn12 | – |
| 261.5 to 261.9 °C | Nc1nc(COc2cccc(Br)c2)cc2nc(-c3ccco3)nn12 | – |
| 233.8 to 234 °C | CC(=O)NCCNC(=O)c1cc2nc(-c3ccco3)nn2c(N)n1 | – |
| 263.5 to 264.2 °C | Nc1nc(/C=C/CNCC2CC2)cc2nc(-c3ccco3)nn12 (as salt: HCl) [Compound 68, 5-Amino-7-[3-(cyclopropylmethylamino)-(E)-propan-1-en-1-yl]-2-(2-furyl)[1,2,4]triazolo[1,5-c]pyrimidine] | – |
| 256.2 to 256.8 °C | COc1ccc(CNCc2ccc(-c3cc4nc(-c5ccco5)nn4c(N)n3)cc2)cc1OC (as salt: hydrochloride) | – |
| 224.6 to 225.2 °C | COc1cc(CNCc2ccc(-c3cc4nc(-c5ccco5)nn4c(N)n3)cc2)cc(OC)c1 (as salt: hydrochloride) [Compound 17, 5-Amino-7-[4-(3,5-dimethoxybenzylaminomethyl)phenyl]-2-(2-furyl)[1,2,4]triazolo[1,5-c]pyrimidine monohydrochloride] | – |
| 238.5 to 238.7 °C | COc1cc(CNCc2cc3nc(-c4ccco4)nn3c(N)n2)cc(OC)c1 (as salt: hydrochloride) [Compound 43, 5-Amino-7-[(3,5-dimethoxybenzylamino)methyl]-2-(2-furyl)-[1,2,4]triazolo[1,5-c]pyrimidine dihydrochloride] | – |
| 229.1 to 229.8 °C | Nc1nc(CNCCCN2CCCC2=O)cc2nc(-c3ccco3)nn12 (as salt: hydrochloride) [Compound 47, 5-Amino-2-(2-furyl)-7-[3-(2-oxopyrrolidin-1-yl)propylamino-methyl][1,2,4]triazolo[1,5-c]pyrimidine dihydrochloride] | – |
| 262 to 262.4 °C | CCN1CCN(Cc2cc3nc(-c4ccco4)nn3c(N)n2)CC1 (as salt: hydrochloride) [Compound 48, 5-Amino-7-(4-ethylpiperazin-1-ylmethyl)-2-(2-furyl)[1,2,4]-triazolo[1,5-c]pyrimidine trihydrochloride] | – |
| 270 °C (dec.) | Nc1nc(CN2CCN(CC3CC3)CC2)cc2nc(-c3ccco3)nn12 (as salt: hydrochloride) [Compound 50, 5-Amino-7-[4-(cyclopropylmethyl)piperazin-1-ylmethyl]-2-(2-furyl)[1,2,4]triazolo[1,5-c]pyrimidine dihydrochloride] | – |
| 179.2 to 180 °C | Nc1nc(-c2ccccc2CNCCc2ccccn2)cc2nc(-c3ccco3)nn12 [Compound 4, 5-Amino-2-(2-furyl)-7-{2-[2-(2-pyridyl)ethylaminomethyl]-phenyl}[1,2,4]triazolo[1,5-c]pyrimidine] | – |
| 273.5 to 274 °C | Nc1nc(-c2ccc(C=O)cc2)cc2nc(-c3ccco3)nn12 [Compound 10, 5-Amino-7-(4-formylphenyl)-2-(2-furyl)[1,2,4]triazolo[1,5-c]pyrimidine] | – |
